From publication doi:10.1101/2025.02.02.636098v1 (biorxiv, 2025) come the findings set out here.

Test [1] deals with T1, mFFA4 (mouse FFA4) (Mus musculus, UniProt Q7TMA4).
T1 sequence (Q7TMA4 1-361): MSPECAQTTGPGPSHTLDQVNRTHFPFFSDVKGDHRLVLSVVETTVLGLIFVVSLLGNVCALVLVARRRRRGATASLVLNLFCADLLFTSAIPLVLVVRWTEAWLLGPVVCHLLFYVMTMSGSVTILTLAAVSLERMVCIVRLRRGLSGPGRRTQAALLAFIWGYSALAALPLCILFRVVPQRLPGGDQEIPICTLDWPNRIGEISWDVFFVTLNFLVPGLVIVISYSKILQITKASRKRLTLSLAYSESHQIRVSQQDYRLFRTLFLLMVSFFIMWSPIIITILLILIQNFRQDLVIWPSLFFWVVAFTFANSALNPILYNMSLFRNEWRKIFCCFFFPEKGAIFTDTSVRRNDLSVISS
Nature of the test: bystander BRET arrestin-3 recruitment, HEK293T. The format is cell-based.

Test [2] has as its target T1, mFFA4 (mouse FFA4). Nature of the test: Ca2+ mobilisation, Fura-2, Flp-In T-REx […]. The format is cell-based.

One may read the IC50 as the concentration needed to halve the response being measured. Read a high IC50 as lower potency. As to `Cc1ccc(S(=O)(=O)NC2c3ccccc3Oc3ccccc32)cc1` [AH7614, 4-Methyl-N-9H-xanthen-9-yl-benzenesulfonamide], the IC50 on mFFA4 (mouse FFA4) [1] is 0.2 µM.
Broadly, the EC50 is the concentration needed to bring the measured effect to its halfway point. On mFFA4 (mouse FFA4) [2], `CC/C=C\C/C=C\C/C=C\CCCCCCCC(=O)O` [aLA] had an EC50 of 10 µM.
